Data reported in ChEMBL document CHEMBL1147359, “Antitumor agents, 138. Rotenoids and isoflavones as cytotoxic constitutents from Amorpha fruticosa” (1993).
In brackets after ≈: the same amount, converted by molar mass. Activity calls are given as the source filed them. No cut-off for these calls is given here.

Experiments:
[1] = system: TE-671; assay: Cytotoxicity against human TE671 cells; type: functional; details: read-out: ED50 (the source's name)
[2] = system: A549; assay: Cytotoxicity against human A549 cells at 10 ug/ml; type: functional, cell-based
[3] = system: HCT-8; assay: Cytotoxicity against human HCT8 cells; type: functional; details: read-out: ED50 (the source's name)
[4] = system: KB; assay: Cytotoxicity against human KB cells; type: functional; details: read-out: ED50 (the source's name)
[5] = system: RPMI-7951; assay: Cytotoxicity against human RPMI7951 cells; type: functional; details: read-out: ED50 (the source's name)
[6] = system: P388; assay: Cytotoxicity against mouse P388 cells; type: functional; details: read-out: ED50 (the source's name)
[7] = system: TE-671; assay: Cytotoxicity against human TE671 cells at 10 ug/ml; type: functional, cell-based
[8] = system: A549; assay: Cytotoxicity against human A549 cells; type: functional; details: read-out: ED50 (the source's name)
[9] = system: KB; assay: Cytotoxicity against human KB cells at 10 ug/ml; type: functional, cell-based
[10] = system: RPMI-7951; assay: Cytotoxicity against human RPMI7951 cells at 10 ug/ml; type: functional, cell-based
[11] = system: HCT-8; assay: Cytotoxicity against human HCT8 cells at 10 ug/ml; type: functional, cell-based
[12] = system: P388; assay: Cytotoxicity against mouse P388 cells at 10 ug/ml; type: functional, cell-based

SMILES | EC50 [1] [µg/mL] | ED50 [2] | EC50 [3] [µg/mL] | EC50 [4] [µg/mL] | EC50 [5] [µg/mL] | EC50 [6] [µg/mL] | ED50 [7] | EC50 [8] [µg/mL] | ED50 [9] | ED50 [10] | ED50 [11] | ED50 [12]
COc1cc2c(cc1OC)[C@@H]1C(=O)c3ccc4c(c3O[C@@H]1CO2)C[C@H](C(C)(C)O[C@@H]1O[C@H](CO)[C@@H](O)[C@H](O)[C@H]1O)O4 | 2.95 (≈ 5.13 µM) | inactive | 7.43 (≈ 12.9 µM) | 6.32 (≈ 11 µM) | 4.44 (≈ 7.73 µM) | 6.68 (≈ 11.6 µM) |  |  |  |  |  | 
COc1ccc2c(=O)c(-c3cc(OC)c(OC)cc3OC)coc2c1 |  | inactive | 4.63 (≈ 13.5 µM) | 0.55 (≈ 1.61 µM) | 0.49 (≈ 1.43 µM) | 0.53 (≈ 1.55 µM) | inactive |  |  |  |  | 
COc1cc2c(cc1OC)[C@]1(O)C(=O)c3ccc4c(c3O[C@@H]1CO2)C[C@H](C(C)(C)O)O4 | 0.12 (≈ 0.28 µM) |  | 0.56 (≈ 1.31 µM) | 3.67 (≈ 8.57 µM) | 0.73 (≈ 1.7 µM) | 0.59 (≈ 1.38 µM) |  | 9.28 (≈ 21.7 µM) |  |  |  | 
COc1ccc(-c2coc3c(OC)c(O)ccc3c2=O)cc1 |  | inactive |  |  |  |  | inactive |  | inactive | inactive | inactive | inactive
COc1ccc(-c2coc3cc(O)c(OC)cc3c2=O)cc1 |  | inactive |  |  |  |  | inactive |  | inactive | inactive | inactive | inactive
C=C(CO)[C@H]1Cc2c(ccc3c2O[C@@H]2COc4cc(OC)c(OC)cc4[C@@H]2C3=O)O1 [AMORPHIGENIN] | < 0.01 |  | 0.03 (≈ 0.0731 µM) | 0.04 (≈ 0.0975 µM) | 0.05 (≈ 0.122 µM) | 0.04 (≈ 0.0975 µM) |  | 0.05 (≈ 0.122 µM) |  |  |  | 
COC1=CC(=O)[C@]2(C=C1OC)OC[C@H]1Oc3c(ccc4c3C=CC(C)(C)O4)C(=O)[C@H]12 [AMORPHISPIRONONE] |  | inactive |  | 0.58 (≈ 1.41 µM) | 0.61 (≈ 1.49 µM) |  | inactive |  |  |  | inactive | inactive
C=C(CO)[C@H]1Cc2c(ccc3c2O[C@@H]2COc4cc(OC)c(OC)cc4[C@]2(O)C3=O)O1 [DABINOL] | < 0.001 |  | < 0.001 | < 0.001 | < 0.001 | < 0.001 |  | < 0.001 |  |  |  | 
COc1cc2c(cc1OC)[C@@H]1C(=O)c3ccc4c(c3O[C@@H]1CO2)C[C@H](C(C)(C)O)O4 [DALPANOL] | 0.49 (≈ 1.19 µM) |  | 0.48 (≈ 1.16 µM) | 0.89 (≈ 2.16 µM) | 4.83 (≈ 11.7 µM) |  |  | 0.86 (≈ 2.09 µM) |  |  |  | inactive
COc1cc2c(cc1OC)[C@]1(O)C(=O)c3ccc4c(c3O[C@@H]1CO2)C=CC(C)(C)O4 [TEPHROSIN] | 0.05 (≈ 0.122 µM) |  | 0.09 (≈ 0.219 µM) | 0.36 (≈ 0.877 µM) | 0.07 (≈ 0.171 µM) | 0.06 (≈ 0.146 µM) |  | < 0.001 |  |  |  | 
